Test results: patent US10442845B2, “Interferon analogs” (BiOrion Technologies B.V., priority 2009, dated 2019)
Bridge positions count the residues as written; N and C are the ends. Ends that are not written are not given here.

Key:
mouse NIH3T3 fibroblasts = assay: Anti-fibrotic effects in mouse NIH3T3 fibroblasts (α-SMA staining); type: cell-based; details: mimetic IFNγ 1 μg/ml, 48 hrs
Description: Briefly, 3T3 fibroblasts were seeded in 24 well plates at the density of 6×10^4 cells/well, After 24 hrs, cells were starved in 0.5% FBS containing medium for overnight. Thereafter, cells were incubated in starvation medium with different compounds (PDGF 50 ng/ml, TGFβ 10 ng/ml, mimetic IFNγ 1 μg/ml, 50 ng/ml PDGF+1 μg/ml mimetic IFNγ and 10 ng/ml TGFβ+1 μg/ml mimetic IFNγ). After 48 hrs of incubation, cells were washed, fixed with ethanol:acetone (1:1) and stained for α-SMA (marker of activated fibroblasts).

PDGFß-receptor = assay: Binding of FITC-labeled PPB or BiPPB to cultured or freshly isolated primary cells; parameters: species or system rat; details: for binding (fluorescence microscopy): FITC-coupled, 10 μg/ml, 2 h, room temperature, rat hepatic stellate cells and other cell types tested
Description: The binding of BiPPB was performed in primary freshly isolated rat hepatic stellate cells. Cells were seeded in the 8-well glass plates (Lab-Tek, Nunc, Naperville, Ill.) at 30,000 cells/well in the culture medium. After overnight incubation at 37° C./5% CO2, cells were washed with PBS and subsequently incubated with FITC-labeled PPB (monocyclic) or BiPPB (bicyclic: 10 μg/ml) at room temperature. To block the binding, anti-PDGF-βR IgG was added to the cells 1 h before FITC coupled PPB or BiPPB. After 2 h, cells were washed 3 to 4 times with cold PBS and fixed with 4% paraformaldehyde. The nuclei were counterstained with DAPI and mounted in citifluor (anti-fade reagent) and visualized under fluorescent microscope.
Similar binding experiments were performed in primary freshly isolated human myofibroblasts, mouse 3T3 fibroblasts and human hepatic stellate cells (LX2). For human Hepatic stellate cells, the sequence of BiPPB was as follows: […]

[1] = test system: Human Hepatocytes (HepG2); assay: ICAM1 expression in human hepatocytes (HepG2); type: cell-based; details: 1 ug/ml, 24 hrs, 18srRNA housekeeping control
Description: Human Hepatocytes (HepG2) were plated in 12 well plates (1×10^5 cells/well). The cells were grown overnight in 5%/37° C./CO2 incubator. […] After 24 hrs of incubation, cells were lysed, RNA was isolated and reverse transcribed. The cDNA was used for the analysis of Inter-Cellular Adhesion Molecule 1 (ICAM1) expression, which is known to be induced in response to IFNγ. 18srRNA was used a housekeeping control.

[2] = test system: acute CCL4-induced liver injury mouse model; assay: Blood count analysis (side effects) in acute CCl4-induced liver injury mouse model; type: in vivo; details: 50,000 U/mice at day 2 and 3; p<0.0025
Description: At day 1, the animals were given a single intra-peritoneal dose (1 ml/kg) of carbon tetrachloride (CCl4) in olive oil or olive oil (controls n=6). After 24 hrs of CCl4 injection, at day 2 and 3, animals were treated either with PBS (n=6), 50,000 U/mice of IFNγ (n=6), 50,000 U/mice of mimetic IFNγ (n=5), 50,000 U/mice of IFNγ-BiPPB (n=6), 50,000 U/mice of Mimetic IFNγ-BiPPB (n=6).

[3] = test system: established advanced liver fibrosis mouse model; assay: Established advanced liver fibrosis mouse model (8 weeks CCl4), liver section staining; type: in vivo
Description: Male balb/c mice (20-22 g) were treated with olive oil or increasing doses of CCl4 (week 1: 0.5 ml/kg; week 2: 0.8 ml/kg and week 3-8: 1 ml/kg prepared in olive oil) twice weekly by intra-peritoneal injections for 8 weeks. In week 7 and 8, mice were treated intravenously with PBS, mimeticIFNγ-PEG or MimeticIFNγ-PEG-BiPPB (5 μg/mice, thrice per week). All mice were sacrificed at week 8; blood and liver samples were collected for subsequent measurements. The liver sections were stained for Collagen I and desmin, CD68, 33D1 and MHC class II.

[4] = test system: liver fibrosis models induced with CCl4 in mice; assay: 4 days (acute) and 8 weeks (chronic) CCl4 liver fibrosis models in mice; type: in vivo, mouse
Description: In vivo, the targeted conjugate was examined in 4 days (acute) and 8 weeks (chronic) liver fibrosis models induced with CCl4 in mice. Several fibrotic parameters and infiltration of inflammatory cells were assessed in the livers using immunohistochemistry and gene expression analysis.

[5] = 5 μg/mice i.v. thrice per week, week 7 and 8, vs untreated CCl4-mice

In the case of “AKFEVNNPQVQRQAFNELIRVVHQLLPESSLRKRKRSR (listed as Mus musculus) [Recombinant mimetic IFNγ]”, the “anti-fibrotic effects (α-Smooth muscle actin staining)” value (mouse NIH3T3 fibroblasts) is reported as “anti-fibrotic effects”.

For “C(1)S R N L I D C(1)G G G D G G C(2)S R N L I D C(2) (CSRNLIDCGGGDGGCSRNLIDC; disulfide 1-8, 15-22; also: FITC label) [BiPPB, Bicyclic peptide against the PDGF-beta-receptor; KGSGSGG linker variant for human hepatic stellate cells]”, the “binding (fluorescence microscopy)” value (PDGFß-receptor) was “specifically binds”, the “binding (fluorescence microscopy)” value (PDGFß-receptor; listed as FITC-coupled BiPPB) was “significant binding” and the “species specificity of binding” value (PDGFß-receptor; Myo-fibroblast-like cells of rat, mouse and human) was “species non-specific”. For the same molecule, the “binding after blocking with PDGF receptor antibody” value (PDGFß-receptor; anti-PDGF-βR IgG added 1 h before) was “almost completely blocked”.

“FEVNNPQVQRQAFNELIRVVHQLLPESSLRKRKRSR [mouse truncated IFNγ, signaling moiety of murine IFNγ (mimIFNγ), without targeting domain]” was tested, and the ICAM1 expression [1] was “neither mouse truncated IFNγ nor Lac-HSA induced ICAM1 expression” and the ICAM1 expression ([1]; listed as mouse (truncated) INFγ) was “ineffective”.

“human IFNγ: human interferon gamma, positive control in human hepatocytes” was tested, and the ICAM1 expression [1] was “upregulated ICAM1 expression”.

B1: INFγ: full length mouse Interferon gamma, SEQ ID NO: 54 (protein, listed as Mus musculus)
chain: MNATHCILALQLFLMAVSGCYCHGTVIESLESLNNYFNSSGIDVEEKSLFLDIWRNWQKDGDMKILQSQIISFYLRLFEVLKDNQAISNNISVIESHLITTFFSNSKAKKDAFMSIAKFEVNNPQVQRQAFNELIRVVHQLLPESSLRKRKRSRC
With B1 the “reduction in platelet count (PLT)” value [2] was “reduction in platelet count”, the “collagen I staining (liver sections)” value [3, 5] was “only a small reduction” and the “desmin staining (liver sections)” value [3, 5] was “only a small reduction”. The “MHCII expression in livers” value ([3]; chronic CCl4 model) was “increased MHCII expression”, the “infiltration of inflammatory cells (CD68+ macrophages, neutrophils, 33D1+ dendritic cells) in livers” value ([3]; chronic CCl4 model) was “induced infiltration of inflammatory cells” and the fibrotic parameters ([4]; both acute and chronic liver fibrosis models) was “only a moderate reduction”. For the same molecule, the MHCII expression ([4]; data not shown) was “increased MHCII expression” and the “infiltration of inflammatory cells (CD68+ macrophages, neutrophils, 33D1+ dendritic cells) / inflammatory response” value ([4]; data not shown) was “induced infiltration of inflammatory cells”.
